Experimental data reported in US20050191612A1, “Method of screening insulin content enhancer” (priority 2002, published 2005).

Assays:
[1] = system: insulin promoter activity in mouse pancreatic β cell line NIT1 cells; assay: Insulin promoter reporter (plasmid InsPro) luciferase activity in NIT1 cells; format: cell-based; conditions: compound 30 μmol/L, treatment 31 hours, p<0.01
Experimental: A transfection reagent (LIPOFECTAMINE 2000; GIBCO BRL, or FuGENE6; Boeringer Mannheim) was used to introduce plasmid InsPro (1-10 ng) prepared in Example 2 to mouse pancreatic β cell line NIT1 cells (4×10^4 cells). The trasfected cells were seeded on a 96-well plate. A Dulbecco modified Eagles' medium (DMEM) or F-12 medium containing 10% fetal calf serum (FCS) was used as a medium. After the seeding, the cells were cultured for 18-20 hours. […] After the medium was aspirated, the cells were lysed with a cell lysing solution (cell lysis buffer LCβ; Toyo Ink Mfg.). A luciferase activity of each lysate was measured by a commercially available measuring kit (PicaGene Luminescent kit; Toyo Ink Mfg.) and a measuring apparatus (ML3000 microtiter plate luminometer; Dynatech Laboratories). […] Further, where the above procedure is repeated except for using a cell not expressing the polypeptide for a screening tool, as a control cell, instead of the cell for a screening tool, when the insulin promoter reporter activity is not increased in the control cell, it can be judged that such a test substance can activate the polypeptide consisting of the amino acid sequence of SEQ ID NO: 2.
Next, compounds A-E were evaluated in a manner similar to that described in Example 5. More particularly, a 96-well plate coated with collagen was used as the 96-well plate, and DMEM was used as the medium. […]

SD rats = assay: Glucose tolerance test for SD rats by one oral dose; format: in vivo, rat; conditions: 100 mg/kg intraperitoneally 5 min before 2 g/kg oral glucose, at 30 minutes, p<0.05
Experimental: (§1) SD rats (4 weeks old; CLEA JAPAN) were made to fast overnight, and 2 g/kg of glucose was orally administered. Compound A (100 mg/kg) had been intraperitoneally administered 5 minutes before the glucose administration. An appropriate amount of blood was taken at 0 minute, 30 minutes, 60 minutes, and 120 minutes after the glucose administration, and used for the measurement of a blood glucose level and a concentration of plasma insulin.
(§2) For measuring the blood glucose level, a supernatant obtained by mixing blood and 0.33 mol/L perchloric acid (blood:0.33 mol/L perchloric acid=1:10) and centrifuging the mixture (3000×g, 10 minutes, 4° C.) was used. For measuring the concentration of plasma insulin, a supernatant obtained by centrifuging blood (3000×g, 10 minutes, 4° C.) was used. Further, Glucose C test Wako (Wako) was used in the measurement of the blood glucose level, and a rat insulin assay system (Amersham) was used in the measurement of the concentration of plasma insulin.
FIG. 4 illustrates a time course of the concentration of plasma insulin (unit=ng/mL) after the oral administration of glucose, and FIG. 5 illustrates a time course of the blood glucose level (unit=mg/dL) after the oral administration of glucose. The mark “*” in FIGS. 4 and 5 denotes that a significant difference from the group to which compound A had not been administered was p<0.05 (Student's t-test).

[2] = system: GK (Goto-Kakizaki) rats (type II diabetes models); assay: Glucose tolerance test for GK (Goto-Kakizaki) rats by one oral dose; format: in vivo, rat; conditions: 100 mg/kg orally, at 30 and 60 minutes after glucose administration
Experimental: as §1, §2
Then, a glucose tolerance test for GK (Goto-Kakizaki) rats (type II diabetes models with incomplete insulin secretion; 7 weeks old; Charles River Japan) by one oral dose was carried out. The GK rat line was established by selectively mating wistar rats in accordance with an index of a poor tolerance in an oral glucose tolerance test, by Yoshio Goto, et al., School of Medicine, Tohoku University, in 1975. […]

## S=C(OCCc1ccncc1)c1ccccc1 [compound A, 2-(pyridine-4-yl)ethyl thiobenzoate]
[1]
  increased value of the reporter activity with respect to control group: ≥ 1.5 times
SD rats
  concentration of plasma insulin after glucose administration: significant increase
  increase of the blood glucose level by the glucose administration: significantly suppressed
[2]
  increase of the blood glucose level by the glucose administration: significantly suppressed
